For data set [1] the following is noted: cited from earlier work.
For a further data set, the target named is α3β4α5 nAChR (Homo sapiens, UniProt P30532+P30926+P32297). Nature of the data set: cell-based.
Another data set deals with α3β4 nAChR (Homo sapiens, UniProt P30926+P32297). Nature of the data set: cell-based.
Another data set deals with α4β2 nAChR (Homo sapiens, UniProt P17787+P43681). As to the kind of experiment: cell-based.
The conditions of data set [2]: read-out: plasma levels (Cmax); in patients; cited from earlier work.
For data set [3] the following is noted: cited from earlier work. This is another data set of the same source.

Structures are written as SMILES.

Broadly, the IC50 is the point on the concentration scale where inhibition reaches its midpoint. Low values mean greater potency in that assay, high ones weaker potency in that assay. One may read the Cmax as the highest concentration seen after dosing.

Chain of α3β4 nAChR (P32297 32-505): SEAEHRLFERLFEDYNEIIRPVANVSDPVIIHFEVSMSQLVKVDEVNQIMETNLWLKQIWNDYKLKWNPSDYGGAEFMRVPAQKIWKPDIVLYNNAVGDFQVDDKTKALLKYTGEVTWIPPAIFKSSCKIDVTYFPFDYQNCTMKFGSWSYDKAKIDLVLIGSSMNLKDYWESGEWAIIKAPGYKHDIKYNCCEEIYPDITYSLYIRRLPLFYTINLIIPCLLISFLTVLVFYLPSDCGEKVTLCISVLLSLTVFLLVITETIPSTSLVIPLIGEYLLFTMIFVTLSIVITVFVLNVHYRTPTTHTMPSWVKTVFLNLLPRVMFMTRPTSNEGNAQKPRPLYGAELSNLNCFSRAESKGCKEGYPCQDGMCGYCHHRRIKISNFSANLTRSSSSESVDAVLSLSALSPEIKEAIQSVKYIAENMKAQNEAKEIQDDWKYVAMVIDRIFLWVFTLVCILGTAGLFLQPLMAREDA
Chain of α3β4 nAChR (P30926 22-498): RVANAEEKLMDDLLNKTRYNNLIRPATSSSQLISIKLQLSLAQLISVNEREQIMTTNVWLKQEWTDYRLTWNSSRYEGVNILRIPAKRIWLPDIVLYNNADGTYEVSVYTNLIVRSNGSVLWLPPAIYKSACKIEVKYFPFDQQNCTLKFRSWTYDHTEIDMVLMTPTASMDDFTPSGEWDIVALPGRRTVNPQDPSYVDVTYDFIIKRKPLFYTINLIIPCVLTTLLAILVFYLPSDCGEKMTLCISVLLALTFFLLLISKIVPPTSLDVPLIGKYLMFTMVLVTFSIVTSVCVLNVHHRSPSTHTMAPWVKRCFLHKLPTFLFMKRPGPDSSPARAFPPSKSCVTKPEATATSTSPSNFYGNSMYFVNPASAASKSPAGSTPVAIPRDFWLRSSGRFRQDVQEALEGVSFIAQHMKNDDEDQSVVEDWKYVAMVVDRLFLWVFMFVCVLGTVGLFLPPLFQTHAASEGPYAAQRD
Chain of α3β4α5 nAChR (P32297 32-505): as the sequence (P32297 32-505) above
Chain of α3β4α5 nAChR (P30926 22-498): as the sequence (P30926 22-498) above
Chain of α3β4α5 nAChR (P30532 23-468): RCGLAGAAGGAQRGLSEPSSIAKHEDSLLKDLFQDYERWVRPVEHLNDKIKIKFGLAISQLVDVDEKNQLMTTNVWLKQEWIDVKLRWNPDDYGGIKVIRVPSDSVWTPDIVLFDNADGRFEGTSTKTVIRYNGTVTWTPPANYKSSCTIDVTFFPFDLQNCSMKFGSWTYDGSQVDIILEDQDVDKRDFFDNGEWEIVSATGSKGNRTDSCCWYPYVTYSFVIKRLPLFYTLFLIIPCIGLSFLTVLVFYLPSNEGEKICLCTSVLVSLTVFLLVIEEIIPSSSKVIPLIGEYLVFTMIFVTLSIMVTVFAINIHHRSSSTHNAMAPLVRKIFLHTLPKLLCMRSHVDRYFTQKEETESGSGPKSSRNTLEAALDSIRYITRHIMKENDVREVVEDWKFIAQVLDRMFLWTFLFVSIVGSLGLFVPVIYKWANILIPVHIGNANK
Chain of α4β2 nAChR (P43681 29-627 limits assumed): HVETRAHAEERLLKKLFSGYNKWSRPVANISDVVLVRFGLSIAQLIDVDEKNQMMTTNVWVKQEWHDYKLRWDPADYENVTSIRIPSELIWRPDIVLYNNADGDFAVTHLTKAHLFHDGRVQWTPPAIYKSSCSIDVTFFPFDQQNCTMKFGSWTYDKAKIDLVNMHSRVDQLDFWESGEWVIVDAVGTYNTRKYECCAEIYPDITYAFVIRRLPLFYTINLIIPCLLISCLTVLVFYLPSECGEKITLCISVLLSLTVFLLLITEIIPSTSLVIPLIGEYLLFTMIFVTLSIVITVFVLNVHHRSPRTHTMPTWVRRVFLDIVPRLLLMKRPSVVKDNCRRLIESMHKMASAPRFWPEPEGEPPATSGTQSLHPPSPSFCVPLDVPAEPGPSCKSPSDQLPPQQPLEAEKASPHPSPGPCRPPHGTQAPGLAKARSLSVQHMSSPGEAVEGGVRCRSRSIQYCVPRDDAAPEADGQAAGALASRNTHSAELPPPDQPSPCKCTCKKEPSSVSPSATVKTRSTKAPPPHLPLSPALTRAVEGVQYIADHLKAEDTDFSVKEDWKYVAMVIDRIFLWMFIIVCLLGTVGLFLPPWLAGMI
Chain of α4β2 nAChR (P17787 26-502): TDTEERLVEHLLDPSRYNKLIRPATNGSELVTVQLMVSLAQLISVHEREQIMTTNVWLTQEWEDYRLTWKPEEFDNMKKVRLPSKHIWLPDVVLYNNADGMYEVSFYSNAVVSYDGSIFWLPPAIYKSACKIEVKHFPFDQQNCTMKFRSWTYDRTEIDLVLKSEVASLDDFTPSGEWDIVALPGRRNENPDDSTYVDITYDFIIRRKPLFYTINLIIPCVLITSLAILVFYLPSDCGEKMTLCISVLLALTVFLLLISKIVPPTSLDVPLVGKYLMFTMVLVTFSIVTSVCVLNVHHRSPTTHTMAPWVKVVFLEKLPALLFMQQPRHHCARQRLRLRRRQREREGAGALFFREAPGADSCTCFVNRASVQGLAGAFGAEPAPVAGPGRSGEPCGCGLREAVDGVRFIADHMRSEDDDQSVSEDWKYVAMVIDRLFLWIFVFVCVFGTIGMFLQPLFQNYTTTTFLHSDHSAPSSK

Regarding `NC1=NCC2c3ccccc3Cc3ccccc3N12` (stereo not shown) [epinastine], in data set [1], the “efficiency of crossing the blood-brain barrier” value is ~ 10%. The IC50 on α3β4α5 nAChR, at α3β4 nAChR and against α4β2 nAChR was at least 1000 nM in each case. The Cmax in data set [2] is around 100 nM.
With `N=C(N)c1ccc(OCCCCCOc2ccc(C(=N)N)cc2)cc1` [pentamidine], the “efficiency in crossing the blood-brain barrier” value in data set [1] is on record as ~ 0.04%. In addition, in data set [3], the plasma concentrations was ~ 1.8 µM.

The record behind these values is publication PMC5480602 (Slas Discovery, 2017).
